“And” between values parts separate entries of the source, which are not always exact repeats. Identical values can stand only once. “Also recorded” adds a separate entry of the source. Counter-ions that a name gives are not always drawn. Marks after values point to notes of the source that are not given here.
How the values were obtained:
[1] = Osmolality of API formulations (micro osmometer, triplicate); type: physicochemical
Method: Osmolality readings were obtained on an Advanced Instruments Advanced™ Micro Osmometer Model 3300 (Advanced Instruments, Inc. Norwood, MA, USA). Saline solutions (0.9% and 3%) were run as positive controls. Each sample was calculated as the mean from back-to-back triplicate measurements. When replicate batches were measured, data was reported as mean±SEM.
The procedure was performed on a 2 mL scale. […] Benzethonium chloride (20 μL of a 1% solution, 0.01% final concentration) was added via micropipette. The pH was adjusted to ˜7.00 with 2M sodium hydroxide, or either 1M or 2M HCl in some cases, and then the mixture was transferred to a 2 mL volumetric flask to be diluted with HPLC grade water. […]
Method 1: In a 5 mL borosilicate glass test tube which contained a Teflon-coated magnetic stir bar, Captisol®-Na+ ([…], H+ equivalents, moisture corrected) was dissolved in HPLC grade water (1.6-1.7 mL), API salt (HCl in most cases) (70 mg/mL FB equivalents) was added and the mixture was stirred until a homogenous transparent solution formed. Benzethonium chloride (20 μL of a 1% solution, giving a 0.01% final concentration) was added via micropipette. The pH was adjusted to ˜7.00 with 1M or 2M sodium hydroxide, or either 1M or 2M HCl in some cases, and then the mixture was transferred to a 2 mL volumetric flask to be diluted with HPLC grade water. […]
Benzethonium chloride (20 μL of a 1% solution, giving a 0.01% final concentration) was added via micropipette. The pH was adjusted to ˜7.00 with 1M or 2M sodium hydroxide, or either 1M or 2M HCl in some cases, and then the mixture transferred to a 2 mL volumetric flask to be diluted with HPLC grade water. […]
The solution was transferred to a 2 mL volumetric flask and diluted to the target volume with HPLC grade water. […]

[2] = pH of API formulations (pH meter); type: physicochemical; conditions: for final pH: after 2M NaOH
[3] = literature value; cited from earlier work
[4] = cited from earlier work
[5] = Dissolution of API freebase in aqueous CapAcid / Captisol solutions at defined API:CapAcid ratios, visual inspection and NaOH titration; conditions: for Successful in a 70 mg/mL API-CapAcid Formulation (Y/N): 70 mg/mL FB
[6] = in water, cited from earlier work; for Reported Freebase Solubility: vendor or literature value
[7] = Osmolality of API formulations (micro osmometer, triplicate); type: physicochemical; remark: listed apart in the source
[8] = cited from earlier work; remark: listed apart in the source
[9] = Visual dissolution / precipitation of API free base-CapAcid formulations at stated API:CapAcid ratios; type: physicochemical
[10] = Concentration test of rimantadine HCl in water; type: physicochemical
Method: A solution of 50 mg/mL rimantadine HCl, FB equivalents, (120.3 mg, 0.56 mmol), was prepared by adding 1.7 mL of HPLC grade water and an addition of a solution of benzethonium chloride (20 μL, […], 0.01% final concentration). […] It was diluted until it did dissolve, which took a total of 4.6 mL of HPLC (including the initial 1.7 mL). The solution was left to stir overnight. The solution was diluted to 5 mL, making the final concentration 20 mg/mL. The pH was 6.83 and the solution was filtered through a 0.20 micron syringe filter. The osmolality was 205 mOsm/kg.
A separate test was performed on another 50 mg/mL solution of rimantadine HCl, FB equivalents (60.2 mg, 0.28 mmol), dissolved in 800 μL of HPLC grade water and an addition of a solution of benzethonium chloride (10 μL, 1 mg/mL, 0.01% final concentration).

[11] = Reported solubility in water of APIs (freebase and salt); type: physicochemical
Method: Table 5 lists the solubility and pKa values of the various APIs described above.
A challenge was that reliable solubility data for certain APIs was difficult to locate (especially for the freebase forms). As such in a number of instances only predicted values could be located and in the case of rimantidine HCl this value was inconsistent with our empirical results. Likewise, the drugbank predicted value for tigecycline was 0.01455 mg/mL, whereas a literature value was 0.45 mg/mL. The solubility of a range of poor to moderately to highly soluble APIs as freebases as well as common commercial API salt forms will be determined.

[12] = Stability of tigecycline FB CapAcid solution on standing; type: physicochemical; conditions: 70 mg/mL FB with 1.1 molar equivalents of CapAcid, FIG. 1A
Method: The formulation of Tigecycline FB CapAcid was prepared as follows. The preparation procedure for Tigecycline FB CapAcid Formulation was modified from the general procedure. A solution of 70 mg/mL Tigecycline FB (69.9 mg, 0.12 mmol) and 1.1 equivalents of CapAcid, H^+ equivalents, (43.7 mg moisture corrected, 40.8 mg active, 0.02 mmol, 0.13 mmol H^+) was prepared by dissolving CapAcid in 700 μL of HPLC grade water, then adding the freebase and stirring until a homogenous solution formed. Benzethonium chloride (10 μL, 1 mg/mL, 0.01% final concentration) was added to the solution. NaOH (2M) was added until the pH was 7.00±0.01. The solution was diluted to 1 mL and the final pH was determined to be 6.99. […] The solution was filtered through a 0.45 micron syringe filter.

[13] = API-CapAcid salts prepared in ethanol, then 70 mg of solid added to 1 mL water (visual); type: physicochemical
Method: The resulting solid API-CapAcid salts were then obtained as solids by evaporation of the ethanol, followed by lyophilization.
In a scintillation vial, a solution of API FB (100 mg) and CapAcid (1 molar equivalent, moisture corrected) was prepared by dissolving Cap Acid in 200 proof ethanol (5 mL) and then adding the freebase API. […] Whether or not the freebase dissolved after the second addition of ethanol, the initial pH, prior to titration, was recorded. The vial was then wrapped in foil and left uncovered in the hood to allow the ethanol to evaporate. After the ethanol fully evaporated, a small amount of HPLC grade water (3-5 mL) was added to each to see if the product would dissolve or become a suspension in the water. The solution was then lyophilized to remove the water. The product was ground with a stir rod and 70±0.1 mg was added to 1 mL of water to see if it would dissolve.

[14] = 70 mg/mL API FB and 1 equivalent of 6M HCl in water
[15] = 70 mg/mL API FB, 1 equivalent of 6M HCl, 1.1 equivalents Captisol®-Na^+
[16] = *70 mg/mL API FB + molar equivalent of 6M HCl in water
[17] = API FB CapAcid formulation, 70 mg/mL API FB, 1.1 equivalents CapAcid (H^+ equivalents), after titration
[18] = CapAcid-API Freebase Formulation (70 mg/mL API FB, 1.1 molar equivalent CapAcid), after pH titration with NaOH or HCl
[19] = Captisol®-Na^+ formulation, *70 mg/mL API FB + 6M HCl, 1.1 molar equivalent Captisol®-Na^+
[20] = 70 mg/mL API FB, 1 equivalent 6M HCl, 1.1 equivalents Captisol®-Na^+, before NaOH/HCl
[21] = 70 mg/mL API FB, 1.1 equivalents CapAcid, before NaOH/HCl
[22] = 1:1 ratio of API to CapAcid (relative to the cyclodextrin), water
[23] = 2:1 ratio of API to CapAcid (relative to the cyclodextrin), water
[24] = concentration test solution diluted to 20 mg/mL, with benzethonium chloride

In the case of `NCC[C@H](O)C(=O)N[C@@H]1C[C@H](N)[C@@H](O[C@H]2O[C@H](CN)[C@@H](O)[C@H](O)[C@H]2O)[C@H](O)[C@H]1O[C@H]1O[C@H](CO)[C@@H](O)[C@H](N)[C@H]1O` [Amikacin], the Osmolality [1, 14] is reported as 287 mOsmol/kg, the Osmolality [1, 15] is reported as 504.3 mOsmol/kg and the Osmolality [1, 16] is reported as 287* mOsm/kg. For the same compound, the Osmolality [1, 17] was 268 mOsmol/kg and 252.2 mOsmol/kg, the Osmolality [1, 18] was 1: 268 mOsm/kg and 2: 252.3 mOsm/kg and the Osmolality [1, 19] was 504.3* mOsm/kg. For the same compound, the “pH of the solution prior to titration” value [2, 20] was 1.28, the “pH of the solution prior to titration” value [2, 21] was 1.13 and 1.25 and the pKa [3] was 8.1^14.
In the case of `CC(=O)[C@H]1CC[C@H]2[C@@H]3CC[C@H]4C[C@H](O)CC[C@]4(C)[C@H]3CC[C@]12C` [Brexanolone], the oral bioavailability [4] is given as “poor”.
For `CCOC(=O)c1ncn2c1CN(C)C(=O)c1cc(F)ccc1-2` [Flumazenil], the pKa [3] is given as 2.87^21, the “Successful in a 70 mg/mL API-CapAcid Formulation (Y/N)” value ([5]; water) is given as “unsuccessful” and the “Reported Freebase Solubility” value [6] is given as 1.2 mg/mL.
With `N=C(N)c1ccc2cc(OC(=O)c3ccc(N=C(N)N)cc3)ccc2c1` [Nafamostat] the Osmolality ([7]; API FB with Captisol® Sodium, 1 molar equivalent relative to the cyclodextrin, after 48 hours) was 354.3 mOsm/Kg, the “pH of the solution before titration” value ([2]; 1:1 ratio of API to CapAcid) was 0.49 and the “final pH” value ([2]; 1:1 ratio of API to CapAcid) was 6.99. The “pH of the solution before titration” value ([2]; 2:1 ratio of API to CapAcid) was 1.55, the “final pH” value ([2]; 2:1 ratio of API to CapAcid) was 6.96 and the “concentration (FB equivalents) at which the freebase dissolved” value [5, 22] was 33300 µg/mL. The “concentration (FB equivalents) at which the freebase dissolved” value [5, 23] was 3000 µg/mL and the “concentration at which the freebase dissolved” value ([5]; API FB with Captisol® Sodium 1 molar equivalent, water, stirring 30 minutes) was roughly 16700 µg/mL.
In the case of `CO[C@H]1C[C@@H]2CC[C@@H](C)[C@@](O)(O2)C(=O)C(=O)N2CCCC[C@H]2C(=O)O[C@H]([C@H](C)C[C@@H]2CC[C@@H](O)[C@H](OC)C2)CC(=O)[C@H](C)/C=C(\C)[C@@H](O)[C@@H](OC)C(=O)[C@H](C)C[C@H](C)/C=C/C=C/C=C/1C` [Rapamycin, rapamycin], the “reported strongest acidic pKa” value [8] is given as 9.96 and the “strongest basic pKa” value [8] is given as −3.
For `CC(N)C12CC3CC(CC(C3)C1)C2` (stereo not shown) [Rimantadine HCl], the Osmolality [7, 24] was 205 mOsm/kg, the pH [2, 24] was 6.83 and the “dissolution state of the formulation” value ([9]; HCl) was “fully dissolved; also recorded: incompletely dissolved”. For the same compound, the “dissolution at 50 mg/mL, FB equivalents” value ([10]; HPLC grade water with 0.01% benzethonium chloride) was “did not dissolve” and the solubility ([10]; pH 6.83, aqueous with cosolvent or surfactant or cyclodextrin, thermodynamic from solid, HPLC grade water, stirred overnight, read-out: concentration at which the salt was soluble in water (FB equivalents)) was 20 mg/mL.
For `CC(N)C12CC3CC(CC(C3)C1)C2` (stereo not shown) [Rimantadine], the “osmolality and pH in words” value ([1]; 70 mg/mL API-Cap formulation) was “isosmotic and PH neutral”, the Osmolality [1, 17] was 301.7 mOsmol/kg and the Osmolality [1, 18] was 301.7 mOsm/kg. For the same compound, the Osmolality ([1]; Captisol®-Na^+ formulation of API salt, ***20 mg/mL FB equivalents, 1.1 molar equivalent Captisol®-Na^+) was 297.3*** mOsm/kg, the Osmolality ([7]; 20 mg/mL API HCl (FB equivalent), 1.1 equivalents Captisol®-Na^+) was 297.3 mOsmol/kg and the Osmolality ([7]; API Salt in water, ***20 mg/mL FB equivalents) was 195.3 mOsm/kg. For the same compound, the “pH of the solution prior to titration” value ([2]; 20 mg/mL API HCl (FB equivalent), 1.1 equivalents Captisol®-Na^+, before NaOH) was 4.65, the “pH of the solution prior to titration” value [2, 21] was 1.93 and the pH ([2]; CapAcid-API Freebase Formulation (70 mg/mL API FB, 1.1 molar equivalent CapAcid), final pH after titration and dilution) was 6.98. The solubility [11] was roughly 20 mg/mL and the “Successful in a 70 mg/mL API-CapAcid Formulation (Y/N)” value ([5]; water, listed as Rimantidine) was “prepared at 70 mg/mL without issue”.
With `CN(C)c1cc(NC(=O)CNC(C)(C)C)c(O)c2c1C[C@H]1C[C@H]3[C@H](N(C)C)C(O)=C(C(N)=O)C(=O)[C@@]3(O)C(O)=C1C2=O` [Tigecycline, tigecycline] the Osmolality [1, 14] was 138.3 mOsmol/kg, the Osmolality [1, 15] was 330.3 mOsmol/kg and the Osmolality ([1]; 70 mg/mL FB, 1.1 equivalents CapAcid, 1 mL scale, recorded the next day after the solution had turned yellow-brown) was 158.7 mOsmol/kg. For the same compound, the Osmolality [1, 16] was 138.3* mOsm/kg, the Osmolality [1, 17] was 99.3 mOsmol/kg and 92.7 mOsmol/kg and the Osmolality [1, 18] was 1: 99.3 mOsm/kg and 2: 92.7 mOsm/kg. For the same compound, the Osmolality [1, 19] was 330.3* mOsm/kg, the “pH of the solution prior to titration” value [2, 20] was 5.61 and the “pH of the solution prior to titration” value [2, 21] was 5.19 and 5.37. The “stability of the formulation” value [12] was “degradation after 24 hours” and the “Reported Freebase Solubility” value [6] was 0.45 mg/mL.
For `CCCN(CCc1cccs1)[C@H]1CCc2c(O)cccc2C1` [rotigotine], the “pH of the solution before titration” value ([2]; 1:1 ratio of API to CapAcid) was 0.93, the “final pH” value ([2]; 1:1 ratio of API to CapAcid) was 5.49 and the “pH of the solution before titration” value ([2]; 2:1 ratio of API to CapAcid) was 1.66. For the same compound, the “final pH” value ([2]; 2:1 ratio of API to CapAcid) was 5.51, the “pKa (amine)” value [3] was 10.97 and the “pKa (phenol)” value [3] was 10.03. The “solubility compared to higher API:captisol ratio” value ([9]; 1:1 ratio to captisol compared to 2:1 ratio) was “superior solubility”, the “appearance at higher API:captisol ratio” value ([9]; 2:1 ratio to captisol) was “precipitation” and the “pH of the ethanol solution prior to titration” value ([13]; API FB 100 mg + CapAcid 1 molar equivalent (H^+) in 10 mL 200 proof ethanol) was 5.63. For the same compound, the “dissolution of 70 mg of the ethanol-prepared API-CapAcid solid in 1 mL water” value ([13]; visual, vortexed) was “did not dissolve in water”, the “concentration (FB equivalents) at which the freebase dissolved” value [5, 22] was 10000 µg/mL and the “concentration (FB equivalents) at which the freebase dissolved” value [5, 23] was 3000 µg/mL. For the same compound, the “dissolution by visual inspection” value ([5]; 2:1 ratio of API to CapAcid, 100 mg FB in 30 mL water (3 mg/mL)) was “most of the FB dissolved” and the “Reported Salt Solubility” value [6] was 3.51 mg/mL^17.

From patent US20250345458A1, “COMPLEXING AGENT SALT FORMULATIONS OF PHARMACEUTICAL COMPOUNDS AT LOW STOICHIOMETRIC RATIOS” (Bexson Biomedical, Inc., priority 2022, published 2025)
